Patent publication US20180271923A1, “COMPOSITION FOR PREVENTING OR TREATING MENOPAUSAL DISORDERS, CONTAINING TETRAGONIA TETRAGONOIDES (PALL.) KUNTZE EXTRACT” (Korea Institute of Oriental Medicine, priority 2015, published 2018)
Marks after values point to notes of the source that are not given here.

Tests used:
Type in all cases: in vivo
ovariectomized rats [1] = assay: Serum triglyceride, glucose, insulin, cholesterol levels and HOMA-IR in overnight-fasted ovariectomized rats; conditions: n = 12, means ± SD
Description: In order to confirm efficacies of the Tetragonia tetragonoides (Pall.) Kuntze extract prepared according to Preparation Example 1 for ameliorating menopausal obesity, rats were ovariectomized and, at the same time, obesity-induced. The rats were fed with the Tetragonia tetragonoides (Pall.) Kuntze extract, and effects of the extract on obesity-related parameters in blood were evaluated. The ovariectomized rats were fed with the Tetragonia tetragonoides (Pall.) Kuntze by the method according to Example 1-1. Then, at the end of the experiment, the rats were fasted overnight and masses of serum glucose, insulin, and triglyceride were measured. Specifically, the rats were fasted for 16 hours, and then blood was collected from tails. Fasting serum glucose levels were measured by a Beckman glucometer and serum insulin concentrations were measured by radioimmunoassay. Fasting blood glucose, food and water intake, and body weight were measured at 10 a.m. on every Tuesday. Based on the above results, a homeostasis model assessment of insulin resistance (HOMA-IR) concentration which is used as a marker of insulin resistance was calculated, and the following Equation 1 was used for such calculation. HOMA-IR=fasting insulin(μIU/ml)×fasting glucose(mM)/22.5 [Equation 1]

ovariectomized rats [2] = assay: Energy consumption by indirect calorimetry in ovariectomized rats; conditions: indirect calorimetry after 8 weeks, 6 hours fasting, n = 12, means ± SD
Text: Specifically, the ovariectomized rats were fed with a high-fat diet (HFD) consisting of 40% energy (En %) of carbohydrate, 20 En % of protein, and 40 En % of fat, along with dextrin. The high-fat diet was made to contain 2% (w/w) of the Tetragonia tetragonoides (Pall.) Kuntze extract, and the rats were offered ad libitum access to the diet for 8 weeks. On the other hand, in the positive-control, the ovariectomized rats received 17β-estradiol which is a hormone preparation and were fed with a diet in which the high fat diet is mixed with dextrin for 8 weeks. Then, at the end of the experiment, a body weight, a mass of visceral fat including peri-uterine fat and fat in retroperitoneum, an energy consumption, and the like were measured. The energy consumption was analyzed by indirect calorimetry. Specifically, after the Tetragonia tetragonoides (Pall.) Kuntze extract was fed for 8 weeks, and a fasting state of 6 hours was induced, the energy consumption was measured at the time of beginning of a dark period in light/dark cycle. In order to analyze calorimetric parameters, a metabolic chamber (airflow=800 ml/min) equipped with a computer-controlled O2 and CO2 measurement system (BIOPAC Systems, Inc., Goleta, Calif.) was utilized, and respiratory quotient (RQ) and resting energy expenditure (REE) were calculated using equations. An average oxygen uptake (VO2) and an average carbon dioxide emission (VCO2) were measured over 30 minutes. After the experiment, data were averaged at 1 minute intervals and the VO2 and VCO2 values were calibrated to a body size (kg^0.75). Oxidation of carbohydrate and fat was calculated as a non-protein oxygen uptake, that is, a relative oxidation rate and an oxygen amount consumed per gram (g) of oxidized substrate.

ovariectomized rats [3] = assay: Evaluation on menopause inducement in ovariectomized rats (weight of uterus, serum 17β-estradiol by RIA kit); conditions: n = 12, means ± SD, Table 1
Description: Rats were ovariectomized to induce menopause, and weight of uterus and serum levels of 17β-estradiol that is a kind of female hormones were measured to determine whether menopause was induced in the rats. Specifically, the rats were sacrificed, and then their uteri were removed and weighed. A serum concentration of 17β-estradiol was measured with an RIA kit (Linco Research Inc.).

ovariectomized rats [4] = assay: Body weight, visceral fat, uterus weight and calorie uptake at end of experiment in ovariectomized rats on high-fat diet
Description: In order to confirm efficacies of the Tetragonia tetragonoides (Pall.) Kuntze extract prepared according to Preparation Example 1 for ameliorating menopausal obesity, rats were ovariectomized and, at the same time, obesity-induced. The rats were fed with the Tetragonia tetragonoides (Pall.) Kuntze extract, and effects of the extract on visceral fat were evaluated. Specifically, the ovariectomized rats were fed with a high-fat diet (HFD) consisting of 40% energy (En %) of carbohydrate, 20 En % of protein, and 40 En % of fat, along with dextrin. The high-fat diet was made to contain 2% (w/w) of the Tetragonia tetragonoides (Pall.) Kuntze extract, and the rats were offered ad libitum access to the diet for 8 weeks. On the other hand, in the positive-control, the ovariectomized rats received 17β-estradiol which is a hormone preparation and were fed with a diet in which the high fat diet is mixed with dextrin for 8 weeks. Then, at the end of the experiment, a body weight, a mass of visceral fat including peri-uterine fat and fat in retroperitoneum, an energy consumption, and the like were measured.

[5] = serum, overnight-fasted ovariectomized rats
[6] = ovariectomized rats, high-fat diet, 8 weeks, n = 12, means ± SD

Weight of uterus (ovariectomized rats [3]): 0.61 ± 0.22^a g
Compound: C[C@]12CC[C@@H]3c4ccc(O)cc4CC[C@H]3[C@@H]1CC[C@@H]2O [Positive-control, 17β-estradiol]
HOMA-IR (ovariectomized rats [1]; fasting insulin × fasting glucose / 22.5 (Equation 1)): 6.8 ± 0.9^c
Glucose levels (ovariectomized rats [1]; serum, overnight-fasted (16 hours) ovariectomized rats, end of experiment): 109 ± 13^b mg/dL
HDL cholesterol (ovariectomized rats [1]; [5]): 23.2 ± 1.5^a mg/dL
Total cholesterol (ovariectomized rats [1]; [5]): 85.0 ± 7.6^c mg/dL
Triglyceride levels (ovariectomized rats [1]; [5]): 65.7 ± 5.8^b mg/dL
Insulin levels (ovariectomized rats [1]; serum, overnight-fasted ovariectomized rats, radioimmunoassay): 1.14 ± 0.19^b ng/mL
Daily energy consumption (ovariectomized rats [2]; beginning of dark period): 117 ± 15^a kcal/kg^0.75/day
Carbohydrate oxidation (ovariectomized rats [2]): 5.6 ± 0.7^b mg/kg^0.75/min
Fat oxidation (ovariectomized rats [2]): 6.9 ± 0.8^b mg/kg^0.75/min
weight of uterus (proliferation of uterus, side effect of hormone therapies) (ovariectomized rats [4]; in words): increase
Body weight (ovariectomized rats [4]; ovariectomized rats, high-fat diet with 2% (w/w) extract for 8 weeks (positive-control: 17β-estradiol), end of experiment, n = 12, means ± SD): 369 ± 26^b g
Body weight gain (ovariectomized rats [4]; [6]): 70.0 ± 11.5^c g
Fat in retroperitoneum (ovariectomized rats [4]; [6]): 5.7 ± 1.6^c g
Peri-uterine fat (ovariectomized rats [4]; [6]): 7.2 ± 1.6^d g
Weight of uterus (ovariectomized rats [4]; ovariectomized rats, high-fat diet, 8 weeks, n = 12, means ± SD, Table 2): 0.61 ± 0.22^a g
Visceral fat (ovariectomized rats [4]; peri-uterine fat and fat in retroperitoneum, ovariectomized rats, high-fat diet, 8 weeks, n = 12, means ± SD): 12.9 ± 2.6^c g
